From ChEMBL document CHEMBL3045715, “Fungicidal Properties of N-(3, 5-Dichlorophenyl)-N-methoxyformamidine and Computer Studies of Its Active Structures” (J Pestic Sci, 1991)
The source made the active and inactive calls. No cut-off for these calls is given here.

System: Botrytis cinerea
Experiment: Antifungal activity against benzimidazole-resistant Botryotinia fuckeliana Bc-44 assessed as inhibition of hyphae extension at 15 ug/ml after 48 hr
Format: functional, organism-based

Row | Compound | inhibition
1 | CO/N=C/Nc1cc(Cl)cc(Cl)c1 | Active

System: Botrytis cinerea
Experiment: Antifungal activity against benzimidazole-sensitive Botryotinia fuckeliana Bc-9 assessed as distorted and swollen germ tube at 15 ug/ml after 48 hr
Format: functional, organism-based

Row | Compound | inhibition
2 | CO/N=C/Nc1cc(Cl)cc(Cl)c1 | inactive

System: Botrytis cinerea
Experiment: Antifungal activity against benzimidazole-sensitive Botryotinia fuckeliana Bc-9 assessed as inhibition of radial mycelial growth after 48 hr
Format: functional, organism-based

Row | Compound | EC50 [ppm]
3 | CO/N=C/Nc1cc(Cl)cc(Cl)c1 | 30
4 | COC(=O)Nc1cc(Cl)cc(Cl)c1 | 5
5 | CNC(=O)Oc1nc2ccccc2[nH]1 | 0.05

System: Botrytis cinerea
Experiment: Antifungal activity against benzimidazole-resistant Botryotinia fuckeliana Bc-44 assessed as inhibition of radial mycelial growth after 48 hr
Format: functional, organism-based

Row | Compound | EC50 [ppm]
6 | CO/N=C/Nc1cc(Cl)cc(Cl)c1 | 3
7 | COC(=O)Nc1cc(Cl)cc(Cl)c1 | 0.2
8 | CNC(=O)Oc1nc2ccccc2[nH]1 | > 100

System: Botrytis cinerea
Experiment: Antifungal activity against benzimidazole-sensitive Botryotinia fuckeliana Bc-9 assessed as distorted and swollen germ tube at 1 ug/ml after 48 hr
Format: functional, organism-based

Row | Compound | inhibition
9 | COC(=O)Nc1cc(Cl)cc(Cl)c1 | inactive

System: Botrytis cinerea
Experiment: Antifungal activity against Botryotinia fuckeliana Bc-44 in kidney bean leaves assessed as reduction of disease diameter lesions at 50 ppm after 4 days
Format: functional
Set-up: scale not given: the % may be the effect or the level left

Row | Compound | Activity [%]
10 | CN(C#N)c1cc(Cl)cc(Cl)c1 | 26
11 | CCONC(=S)Nc1cc(Cl)cc(Cl)c1 | <25
12 | CO/N=C/Nc1cc(Cl)cc(Cl)c1 | 90
13 | COC(=O)Nc1cc(Cl)cc(Cl)c1 | 90
14 | CCO/N=C(\C)Nc1cc(Cl)cc(Cl)c1 | 50
15 | Clc1cc(Cl)cc(Nc2nccs2)c1 | <25
16 | CCO/N=C(/Nc1cc(Cl)cc(Cl)c1)SC | <25
17 | CCONC(=O)Nc1cc(Cl)cc(Cl)c1 | <25
18 | CCO/N=C/Nc1cc(Cl)cc(Cl)c1 | 90
19 | N#CNc1cc(Cl)cc(Cl)c1 | <25

System: Botrytis cinerea
Experiment: Antifungal activity against benzimidazole-sensitive Botryotinia fuckeliana Bc-9 assessed as inhibition of hyphae extension at 15 ug/ml after 48 hr
Format: functional, organism-based

Row | Compound | inhibition
20 | CO/N=C/Nc1cc(Cl)cc(Cl)c1 | inactive

System: Botrytis cinerea
Experiment: Antifungal activity against benzimidazole-resistant Botryotinia fuckeliana Bc-44 assessed as inhibition of conidia germination at 15 ug/ml after 48 hr
Format: functional, organism-based

Row | Compound | Activity
21 | CO/N=C/Nc1cc(Cl)cc(Cl)c1 | inactive

System: Botrytis cinerea
Experiment: Antifungal activity against benzimidazole-sensitive Botryotinia fuckeliana Bc-9 assessed as inhibition of hyphae extension at 1 ug/ml after 48 hr
Format: functional, organism-based

Row | Compound | inhibition
22 | COC(=O)Nc1cc(Cl)cc(Cl)c1 | inactive

System: Botrytis cinerea
Experiment: Antifungal activity against Botryotinia fuckeliana Bc-44 in kidney bean leaves assessed as reduction of disease diameter lesions at 200 ppm after 4 days
Format: functional
Set-up: scale not given: the % may be the effect or the level left

Row | Compound | Activity [%]
23 | CN(C#N)c1cc(Cl)cc(Cl)c1 | 90
24 | CCONC(=S)Nc1cc(Cl)cc(Cl)c1 | <25
25 | CO/N=C/Nc1cc(Cl)cc(Cl)c1 | 100
26 | COC(=O)Nc1cc(Cl)cc(Cl)c1 | 100
27 | CCO/N=C(\C)Nc1cc(Cl)cc(Cl)c1 | 100
28 | Clc1cc(Cl)cc(Nc2nccs2)c1 | 26
29 | CCO/N=C(/Nc1cc(Cl)cc(Cl)c1)SC | 26
30 | CCONC(=O)Nc1cc(Cl)cc(Cl)c1 | <25
31 | CCO/N=C/Nc1cc(Cl)cc(Cl)c1 | 100
32 | N#CNc1cc(Cl)cc(Cl)c1 | <25

System: Botrytis cinerea
Experiment: Resistant ratio of EC50 for benzimidazole-sensitive Botryotinia fuckeliana Bc-9 to EC50 for benzimidazole-resistant Botryotinia fuckeliana Bc-44
Format: functional

Row | Compound | Ratio EC50
33 | CO/N=C/Nc1cc(Cl)cc(Cl)c1 | 10
34 | COC(=O)Nc1cc(Cl)cc(Cl)c1 | 25
35 | CNC(=O)Oc1nc2ccccc2[nH]1 | 0.0005

System: Botrytis cinerea
Experiment: Antifungal activity against benzimidazole-resistant Botryotinia fuckeliana Bc-44 assessed as distorted and swollen germ tube at 15 ug/ml after 48 hr
Format: functional, organism-based

Row | Compound | inhibition
36 | CO/N=C/Nc1cc(Cl)cc(Cl)c1 | Active
